The record followed here is patent US20060165631A1, “Use of oligoglucosamines in cosmetic or dermatological preparations” (priority 2003, published 2006).

This assay concerns human keratinocytes. As to the kind of experiment: Protection of cells against UV-B rays (cell DNA, LDH and PGE2 release). The class given is cell-based. The settings on record: 0.03 % w/v, UVB 50 mJ/cm^2, control with UVB = 100%, without UVB = 0%.

Procedure: The influence of UVB rays on keratinocytes was determined in vitro through the release of cytoplasmatic enzymes, such as LDH (lactate dehydrogenase) for example, which runs parallel to the cell damage and the formation of PGE2. To carry out the test, a keratinocyte culture was mixed with foetal calf serum and inoculated with the test substances after storage at 37° C. in an atmosphere containing 5% CO2. After incubation for 36 h at 37° C. and a CO2 level of 5% by vol., the nutrient medium was replaced by an electrolyte solution and the fibroblasts were damaged with a particular dose of UVB (50 mJ/cm^2; lamp: Duke GL40E). The quantity of keratinocytes was determined after trypsination via a cell counter while the LDH concentration was enzymatically determined.

`CC(=O)Oc1ccccc1C(=O)O` [acetylsalicylic acid]: the LDH released stood at 0% and the PGE2 released is 0%.
